In article PMC7411887, “New Paracyclophanylthiazoles with Anti-Leukemia Activity: Design, Synthesis, Molecular Docking, and Mechanistic Studies” (Molecules, 2020):
Where two headings read alike, the source gives them in different places.

Legend:
[1] = system: leukemia RPMI-8226; assay: MTT antiproliferative assay
[2] = system: leukemia SR; assay: MTT antiproliferative assay; details: Homo sapiens, read-out: Cytotoxicity IC50 L.SR
[3] = system: HL-60(TB); assay: NCI single-dose screen (SRB); assay type: cell-based; details: Homo sapiens; Leukemia HL-60(TB); 10^−5 M; read-out: Growth inhibition percentage
Method: (§1) The methodology of the NCI anticancer screening was described in detail elsewhere (http://www.dtp.nci.nih.gov). […] Tested compounds were added to the culture at a single concentration (10^−5 M) and the cultures were incubated for 48 h. End-point determinations were made with a protein binding dye, SRB. Results for each tested compound were reported as the percentage growth of the treated cells when compared to the untreated control cells. The percentage growth was evaluated spectrophotometrically versus controls not treated with test agents. All experiments were repeated three times (Table 1).
Briefly, the protocol was performed on 60 human tumor cell lines derived from different nine neoplastic diseases. […] If the results obtained met selection criteria, then the compound was tested again on all 60 cell lines in 5× 10-fold dilutions with the top dose being 10^−4 M or 150 μg/mL. Detailed methods are described in the Supplementary Materials related to this article. […]
on their site (http://www.dtp.nci.nih.gov). But briefly, the protocol performed at sixty human […]
National Cancer Institute, Bethesda, USA. If the results obtained meet selection criteria, then the […]
10-4 molar or 150 μg/mL. Detailed methods are described in supplementary material related to […]
2. MTT- Cytotoxicity assay method […]
should not exceed 10^6 cells/cm2. Each test should include a blank containing complete medium […]
salt solution without phenol red and serum. Add reconstituted MTT in an amount equal to 10% of the culture medium volume.

[4] = system: A498; assay: NCI single-dose screen (SRB); assay type: cell-based; details: Homo sapiens; Renal Cancer A498; 10^−5 M; read-out: Growth inhibition percentage
Method: as §1
(§2) Briefly, the protocol was performed on 60 human tumor cell lines derived from different nine neoplastic diseases. […] If the results obtained met selection criteria, then the compound was tested again on all 60 cell lines in 5× 10-fold dilutions with the top dose being 10^−4 M or 150 μg/mL. Detailed methods are described in the Supplementary Materials related to this article.
(§3) on their site (http://www.dtp.nci.nih.gov). But briefly, the protocol performed at sixty human
(§4) National Cancer Institute, Bethesda, USA. If the results obtained meet selection criteria, then the
(§5) 10-4 molar or 150 μg/mL. […]

[5] = system: A549/ATCC; assay: NCI single-dose screen (SRB); assay type: cell-based; details: Homo sapiens; Non-Small-Cell Lung Cancer A549/ATCC; 10^−5 M; read-out: Growth inhibition percentage
Method: as §1, §2, §3, §4, §5

[6] = system: BT-549; assay: NCI single-dose screen (SRB); assay type: cell-based; details: Homo sapiens; Breast Cancer BT-549; 10^−5 M; read-out: Growth inhibition percentage
Method: as §1, §2, §3, §4, §5

[7] = system: DU-145; assay: NCI single-dose screen (SRB); assay type: cell-based; details: Homo sapiens; Prostate Cancer DU-145; 10^−5 M; read-out: Growth inhibition percentage
Method: as §1, §2, §3, §4, §5

[8] = system: HCT-116; assay: NCI single-dose screen (SRB); assay type: cell-based; details: Homo sapiens; Colon Cancer HCT-116; 10^−5 M; read-out: Growth inhibition percentage
Method: as §1, §2, §3, §4, §5

[9] = system: HCT-15; assay: NCI single-dose screen (SRB); assay type: cell-based; details: Homo sapiens; Colon Cancer HCT-15; 10^−5 M; read-out: Growth inhibition percentage
Method: as §1, §2, §3, §4, §5

[10] = system: HOP-92; assay: NCI single-dose screen (SRB); assay type: cell-based; details: Homo sapiens; Non-Small-Cell Lung Cancer HOP-92; 10^−5 M; read-out: Growth inhibition percentage
Method: as §1, §2, §3, §4, §5

[11] = system: IGROV1; assay: NCI single-dose screen (SRB); assay type: cell-based; details: Homo sapiens, IGROV-1; Ovarian Cancer IGROV1; 10^−5 M; read-out: Growth inhibition percentage
Method: as §1, §2, §3, §4, §5

[12] = system: LOX IMVI; assay: NCI single-dose screen (SRB); assay type: cell-based; details: Homo sapiens; Melanoma LOX IMVI; 10^−5 M; read-out: Growth inhibition percentage
Method: as §1, §2, §3, §4, §5

[13] = system: MALME-3M; assay: NCI single-dose screen (SRB); assay type: cell-based; details: Homo sapiens; Melanoma MALME-3M; 10^−5 M; read-out: Growth inhibition percentage
Method: as §1, §2, §3, §4, §5

[14] = system: NCI-H226; assay: NCI single-dose screen (SRB); assay type: cell-based; details: Homo sapiens; Non-Small-Cell Lung Cancer NCI-H226; 10^−5 M; read-out: Growth inhibition percentage
Method: as §1, §2, §3, §4, §5

[15] = system: NCI-H23; assay: NCI single-dose screen (SRB); assay type: cell-based; details: Homo sapiens; Non-Small-Cell Lung Cancer NCI-H23; 10^−5 M; read-out: Growth inhibition percentage
Method: as §1, §2, §3, §4, §5

[16] = system: NCI-H460; assay: NCI single-dose screen (SRB); assay type: cell-based; details: Homo sapiens; Non-Small-Cell Lung Cancer NCI-H460; 10^−5 M; read-out: Growth inhibition percentage
Method: as §1, §2, §3, §4, §5

[17] = system: NCI/ADR-RES; assay: NCI single-dose screen (SRB); assay type: cell-based; details: Homo sapiens; Ovarian Cancer NCI/ADR-RES; 10^−5 M; read-out: Growth inhibition percentage
Method: as §1, §2, §3, §4, §5

[18] = system: OVCAR-3; assay: NCI single-dose screen (SRB); assay type: cell-based; details: Homo sapiens; Ovarian Cancer OVCAR-3; 10^−5 M; read-out: Growth inhibition percentage
Method: as §1, §2, §3, §4, §5

[19] = system: PC-3; assay: NCI single-dose screen (SRB); assay type: cell-based; details: Homo sapiens; Prostate Cancer PC-3; 10^−5 M; read-out: Growth inhibition percentage
Method: as §1, §2, §3, §4, §5

[20] = system: RPMI-8226; assay: NCI single-dose screen (SRB); assay type: cell-based; details: Homo sapiens; Leukemia RPMI-8226; 10^−5 M; read-out: Growth inhibition percentage
Method: as §1, §2, §3, §4, §5

[21] = system: SF-268; assay: NCI single-dose screen (SRB); assay type: cell-based; details: Homo sapiens; CNS Cancer SF-268; 10^−5 M; read-out: Growth inhibition percentage
Method: as §1, §2, §3, §4, §5

[22] = system: SK-MEL-2; assay: NCI single-dose screen (SRB); assay type: cell-based; details: Homo sapiens; Melanoma SK-MEL-2; 10^−5 M; read-out: Growth inhibition percentage
Method: as §1, §2, §3, §4, §5

[23] = system: SK-MEL-5; assay: NCI single-dose screen (SRB); assay type: cell-based; details: Homo sapiens; Melanoma SK-MEL-5; 10^−5 M; read-out: Growth inhibition percentage
Method: as §1, §2, §3, §4, §5

[24] = system: SNB-75; assay: NCI single-dose screen (SRB); assay type: cell-based; details: Homo sapiens; CNS Cancer SNB-75; 10^−5 M; read-out: Growth inhibition percentage
Method: as §1, §2, §3, §4, §5

[25] = system: SW-620; assay: NCI single-dose screen (SRB); assay type: cell-based; details: Homo sapiens; Colon Cancer SW-620; 10^−5 M; read-out: Growth inhibition percentage
Method: as §1, §2, §3, §4, §5

[26] = system: UACC-62; assay: NCI single-dose screen (SRB); assay type: cell-based; details: Homo sapiens; Melanoma UACC-62; 10^−5 M; read-out: Growth inhibition percentage
Method: as §1, §2, §3, §4, §5

[27] = Homo sapiens, RPMI-8226, read-out: Cytotoxicity IC50 RPMI-8226, MTT, mean ± SD

| Structure (SMILES) | IC50 [2] | inhibition at 10 µM [3] | inhibition at 10 µM [4] | inhibition at 10 µM [5] | inhibition at 10 µM [6] | inhibition at 10 µM [7] | inhibition at 10 µM [8] | inhibition at 10 µM [9] | inhibition at 10 µM [10] | inhibition at 10 µM [11] | inhibition at 10 µM [12] | inhibition at 10 µM [13] | inhibition at 10 µM [14] | inhibition at 10 µM [15] | inhibition at 10 µM [16] | inhibition at 10 µM [17] | inhibition at 10 µM [18] | inhibition at 10 µM [19] | inhibition at 10 µM [20] | inhibition at 10 µM [21] | further results |
| --- | --- | --- | --- | --- | --- | --- | --- | --- | --- | --- | --- | --- | --- | --- | --- | --- | --- | --- | --- | --- | --- |
| COc1cc2c(c(OC)c1OC)-c1ccc(OC)c(=O)cc1[C@@H](NC(C)=O)CC2 [Colchicine, colchicine, reference compound] | 1.81 ± 0.0701 µM |  |  |  |  |  |  |  |  |  |  |  |  |  |  |  |  |  |  |  | IC50 ([1]; Homo sapiens, RPMI-8226, read-out: Cytotoxicity IC50 RPMI-8226): 4.05 ± 0.0478 µM |
| COC(=O)C=C1SC(=NNC(=O)c2cc3ccc2CCc2ccc(cc2)CC3)N(Cc2ccccc2)C1=O [Compound 3b] | 2.02 ± 0.0688 µM | 105% | 53.9% | 22.9% | 89.7% | 16.8% | 50.5% | 72.2% | 24.5% | 57.7% | 93.8% | 11.6% | 35.2% | 22.6% | 6.29% | 29.6% | 79.7% | 82.2% | 147% | 14.9% | inhibition at 10 µM [22]: 14.4%; inhibition at 10 µM [23]: 17.7%; inhibition at 10 µM [24]: 48.8%; inhibition at 10 µM [25]: 81.8%; inhibition at 10 µM [26]: 48.1%; IC50 [1, 27]: 4.62 ± 0.0459 µM |
| COC(=O)C=C1SC(=Nc2cccnc2)N(NC(=O)c2cc3ccc2CCc2ccc(cc2)CC3)C1=O [Compound 3c, Methyl (E)-2-((E)-3-[2.2]paracyclophanyl)amido-4-oxo-2-(pyridin-3-ylimino)-thiazolidin-5-ylidene)acetate] | 4.84 ± 0.0843 µM | 48.6% | 3.59% | 2.04% | 18.4% | 0% | 6.35% | 11.8% | 8.14% | 15.4% | 9.78% | 0% | 7.48% | 9.18% | 0.75% | 4.7% | 4.51% | 18.2% | 83% | 3.08% | inhibition at 10 µM [22]: 0%; inhibition at 10 µM [23]: 3.64%; inhibition at 10 µM [24]: 0.25%; inhibition at 10 µM [25]: 10.8%; inhibition at 10 µM [26]: 10.7%; IC50 [1, 27]: 9.69 µM; IC50 ([1]; read-out: Cytotoxicity IC50 RPMI-8226, MTT, mean ± SD): 9.96 ± 0.345 µM |
| COC(=O)C=C1SC(=NNC(=O)c2cc3ccc2CCc2ccc(cc2)CC3)N(c2ccccc2)C1=O [Compound 3a] | 1.11 ± 0.0685 µM | 83.6% | 50.8% | 30.9% | 64.5% | 49.1% | 96% | 99.7% | 24.7% | 94% | 128% | 21.2% | 26.2% | 59.6% | 39.4% | 68.6% | 106% | 136% | 121% | 27.5% | inhibition at 10 µM [22]: 13%; inhibition at 10 µM [23]: 30.6%; inhibition at 10 µM [24]: 54.3%; inhibition at 10 µM [25]: 92.6%; inhibition at 10 µM [26]: 74.8%; IC50 [1, 27]: 1.61 ± 0.0654 µM |
| C=CCN1C(=O)C(=CC(=O)OC)SC1=NNC(=O)c1cc2ccc1CCc1ccc(cc1)CC2 [Compound 3d] | 22.06 ± 0.0679 µM | 8.16% | 12.1% | 5.2% | 38.3% | 0% | 46% | 33.1% | 18.6% | 10.8% | 21.2% | 7.56% | 12.4% | 11.8% | 0% | 10.5% | 13.6% | 51.6% | 109% | 0% | inhibition at 10 µM [22]: 2.7%; inhibition at 10 µM [23]: 7.53%; inhibition at 10 µM [24]: 21.9%; inhibition at 10 µM [25]: 55.5%; inhibition at 10 µM [26]: 22.8%; IC50 [1, 27]: 17.81 ± 0.0544 µM |
| CCN1C(=O)C(=CC(=O)OC)SC1=NNC(=O)c1cc2ccc1CCc1ccc(cc1)CC2 [Compound 3e] | 5.04 ± 0.0791 µM | 11.6% | 6.63% | 3% | 7.73% | 0% | 50.5% | 31.6% | 18.4% | 11.6% | 26.5% | 8.06% | 7.31% | 0.4% | 0% | 13.5% | 7.09% | 43.3% | 114% | 2.18% | inhibition at 10 µM [22]: 5.78%; inhibition at 10 µM [23]: 7.5%; inhibition at 10 µM [24]: 21.2%; inhibition at 10 µM [25]: 91.2%; inhibition at 10 µM [26]: 21.4%; IC50 [1, 27]: 3.17 ± 0.0489 µM |
| COC(=O)/C=C1/S/C(=N/NC(=O)c2cc3ccc2CCc2ccc(cc2)CC3)N(C2CC2)C1=O [Compound 3f] |  | 26.4% | 3.39% | 11.4% | 26.8% | 6.2% | 24.6% | 29.4% | 16.2% | 7.2% | 9.41% | 11.3% | 9.41% | 9.32% | 1.98% | 7.72% | 15.9% | 18.9% | 49.8% | 2.56% | inhibition at 10 µM [22]: 13.5%; inhibition at 10 µM [23]: 14.5%; inhibition at 10 µM [24]: 24.7%; inhibition at 10 µM [25]: 12.9%; inhibition at 10 µM [26]: 18% |
